# Source: publication PMC7758399, “Phosphoglucoisomerase Is an Important Regulatory Enzyme in Partitioning Carbon out of the Calvin-Benson Cycle” (Frontiers in Plant Science, 2020)
# Where two headings read alike, the source gives them in different places.
# Experiments:
# Format in all cases: biochemical
# cytosolic AtPGI (PGI2) [1] = target: T1, cytosolic AtPGI (PGI2) (Arabidopsis thaliana, UniProt P34795); test: G6PDH-coupled spectrophotometric assay, Hill function fit; conditions: F6P to G6P direction; 50 mM bicine pH 7.8, 4.8 mM DTT, 0.6 mM NADP+; table and text disagree, table columns possibly interchanged; read-out: F6P G6P / Cytosolic PGI
# T1 construct: gene PGIC; N-terminal His-tag, pET11a, E. coli BL21, Ni-NTA purified
# T1 sequence (P34795 1-560): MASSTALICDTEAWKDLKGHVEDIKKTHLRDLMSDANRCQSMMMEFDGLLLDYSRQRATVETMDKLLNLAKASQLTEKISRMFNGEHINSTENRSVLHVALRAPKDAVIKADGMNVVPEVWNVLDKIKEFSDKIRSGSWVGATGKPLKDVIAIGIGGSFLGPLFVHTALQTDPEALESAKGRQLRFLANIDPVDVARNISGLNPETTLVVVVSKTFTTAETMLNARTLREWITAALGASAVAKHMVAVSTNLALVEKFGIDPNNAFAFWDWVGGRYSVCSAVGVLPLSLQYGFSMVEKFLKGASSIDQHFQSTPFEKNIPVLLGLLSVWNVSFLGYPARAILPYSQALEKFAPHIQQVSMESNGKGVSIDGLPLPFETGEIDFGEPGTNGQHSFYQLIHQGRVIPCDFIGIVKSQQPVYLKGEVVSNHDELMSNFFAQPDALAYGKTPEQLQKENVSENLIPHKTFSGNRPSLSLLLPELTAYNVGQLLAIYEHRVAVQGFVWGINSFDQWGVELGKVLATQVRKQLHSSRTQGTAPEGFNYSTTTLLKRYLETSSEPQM
# Excerpt: G6PDH-coupled spectrophotometric assay, Hill function fit on cytosolic AtPGI (PGI2)
# plastidic AtPGI (PGI1) [2] = target: T2, plastidic AtPGI (PGI1) (Arabidopsis thaliana, UniProt Q8H103); test: as above; conditions: F6P to G6P direction; 50 mM bicine pH 7.8, 4.8 mM DTT, 0.6 mM NADP+; read-out: F6P G6P / Plastidic PGI
# T2 construct: N-terminal His-tag, plastid targeting peptide removed, pET11a, E. coli BL21, Ni-NTA purified
# T2 sequence (Q8H103 49-613): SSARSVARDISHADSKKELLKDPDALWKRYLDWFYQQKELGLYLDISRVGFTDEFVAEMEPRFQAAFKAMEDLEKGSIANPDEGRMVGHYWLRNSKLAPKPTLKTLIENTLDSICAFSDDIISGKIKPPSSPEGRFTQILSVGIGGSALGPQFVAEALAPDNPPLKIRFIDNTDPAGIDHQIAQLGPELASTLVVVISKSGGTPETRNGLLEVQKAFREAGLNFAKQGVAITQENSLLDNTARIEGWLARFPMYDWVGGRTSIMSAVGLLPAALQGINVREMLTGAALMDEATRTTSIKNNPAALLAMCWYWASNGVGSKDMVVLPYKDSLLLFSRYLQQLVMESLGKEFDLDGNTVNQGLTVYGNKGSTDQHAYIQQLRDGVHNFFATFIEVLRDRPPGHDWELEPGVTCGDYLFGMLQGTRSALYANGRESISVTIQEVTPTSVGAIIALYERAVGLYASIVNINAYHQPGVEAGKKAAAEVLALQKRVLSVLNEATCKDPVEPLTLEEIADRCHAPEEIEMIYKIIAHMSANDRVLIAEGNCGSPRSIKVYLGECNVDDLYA
# Excerpt: G6PDH-coupled spectrophotometric assay, Hill function fit on plastidic AtPGI (PGI1)
# plastidic SoPGI = target: T3, plastidic SoPGI (Spinacia oleracea, UniProt O82058); test: PGI assay on lysed isolated chloroplasts; conditions: F6P to G6P direction; light-treated leaves (dark-treated also measured)
# T3 construct: gene GPIP; native, lysed Percoll-isolated chloroplasts from market spinach leaves, light or dark treated
# T3 sequence (O82058 51-618): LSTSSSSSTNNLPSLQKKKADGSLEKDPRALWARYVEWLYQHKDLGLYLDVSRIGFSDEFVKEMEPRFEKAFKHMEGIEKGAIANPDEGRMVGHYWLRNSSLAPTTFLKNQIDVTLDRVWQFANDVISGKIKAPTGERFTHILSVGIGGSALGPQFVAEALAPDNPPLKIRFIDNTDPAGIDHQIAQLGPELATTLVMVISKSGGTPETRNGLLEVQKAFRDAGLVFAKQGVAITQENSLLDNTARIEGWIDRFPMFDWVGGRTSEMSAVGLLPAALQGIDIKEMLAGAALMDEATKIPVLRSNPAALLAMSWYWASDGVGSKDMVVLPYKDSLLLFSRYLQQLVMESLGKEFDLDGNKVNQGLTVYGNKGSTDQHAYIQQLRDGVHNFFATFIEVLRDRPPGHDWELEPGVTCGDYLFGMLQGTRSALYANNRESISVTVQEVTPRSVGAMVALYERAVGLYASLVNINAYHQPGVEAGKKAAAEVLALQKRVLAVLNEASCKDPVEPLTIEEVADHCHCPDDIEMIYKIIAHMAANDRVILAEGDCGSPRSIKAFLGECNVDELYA
# cytosolic AtPGI (PGI2) [3] = target: T1, cytosolic AtPGI (PGI2); test: G6PDH-coupled spectrophotometric assay, non-linear least squares fit; conditions: F6P to G6P direction, F6P 0-0.98 mM, 50 mM bicine pH 7.8, 4.8 mM DTT, 0.6 mM NADP+, read-out: F6P G6P / Cytosolic PGI
# Excerpt: G6PDH-coupled spectrophotometric assay, non-linear least squares fit on cytosolic AtPGI (PGI2)
# plastidic AtPGI (PGI1) [4] = target: T2, plastidic AtPGI (PGI1); test: as above; conditions: F6P to G6P direction, F6P 0-0.98 mM, 50 mM bicine pH 7.8, 4.8 mM DTT, 0.6 mM NADP+, read-out: F6P G6P / Plastidic PGI
# Excerpt: G6PDH-coupled spectrophotometric assay, non-linear least squares fit on plastidic AtPGI (PGI1)
# cytosolic AtPGI (PGI2) [5] = target: T1, cytosolic AtPGI (PGI2); test: phosphofructokinase-coupled LC-MS/MS assay of FBP, Hill function fit; conditions: G6P to F6P direction; 50 mM Tris pH 7.8, 2.5 mM MgCl2, 1 mM ATP, 5 mM DTT; read-out: G6P F6P / Cytosolic PGI
# Excerpt: phosphofructokinase-coupled LC-MS/MS assay of FBP, Hill function fit on cytosolic AtPGI (PGI2)
# plastidic AtPGI (PGI1) [6] = target: T2, plastidic AtPGI (PGI1); test: as above; conditions: G6P to F6P direction; 50 mM Tris pH 7.8, 2.5 mM MgCl2, 1 mM ATP, 5 mM DTT; table and text ratio disagree, table columns possibly interchanged; read-out: G6P F6P / Plastidic PGI
# Excerpt: phosphofructokinase-coupled LC-MS/MS assay of FBP, Hill function fit on plastidic AtPGI (PGI1)
# [7] = competitive with F6P except above 1.0 mM
compound,measurement,setting,value
"O=P(O)(O)OC[C@H]1OC(O)(CO)[C@@H](O)[C@@H]1O (stereo partly drawn) [F6P, fructose 6-phosphate]",Km,cytosolic AtPGI (PGI2) [1],203 ± 12 µM
same,Km,plastidic AtPGI (PGI1) [2],73 ± 80 µM
same,Km,plastidic SoPGI,The Km of SoPGI for F6P did not change in the light or dark
"O=C[C@H](O)[C@H](O)COP(=O)(O)O [E4P, erythrose 4-phosphate]",Ki,cytosolic AtPGI (PGI2) [3],1.5 µM
same,Ki,plastidic AtPGI (PGI1) [4],2.3 µM
"O=P(O)(O)OC[C@H]1OC(O)[C@H](O)[C@@H](O)[C@@H]1O (stereo partly drawn) [G6P, glucose 6-phosphate]",Km,cytosolic AtPGI (PGI2) [5],158 ± 85 µM
same,Km,plastidic AtPGI (PGI1) [6],164 ± 43 µM
"O=C(O)[C@H](O)[C@@H](O)[C@H](O)[C@H](O)COP(=O)(O)O [6PG, 6-phosphogluconate]",Ki,cytosolic AtPGI (PGI2) [3]; [7],106 µM
same,Ki,plastidic AtPGI (PGI1) [4]; [7],31 µM
